Reference: patent publication US20150337013A1, “NOVEL ANTIBACTERIAL AGENTS FOR THE TREATMENT OF GRAM POSITIVE INFECTIONS” (priority 2008, published 2015)
Read-outs that look alike come from different tables or passages of the source.

Tests used:
[1] = tested on: Clostridium difficile
[2] = tested on: Staphylococcus aureus SAU.399 (ATCC 43300), Methicillin and Oxacillin Resistant; assay type: cell-based
How it was run: (§1)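 Susceptibility is measured by modified CLSI broth microdilution using calcium-supplemented Mueller Hinton broth (50 mg/L) and an inoculum of 5×10^5 bacteria. MIC values in μg/mL mark the lowest concentration that leaves no visible turbidity.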

[3] = tested on: Enterococcus faecalis EFS.201 (ATCC 49452); assay type: cell-based
How it was run: as §1

[4] = tested on: Enterococcus faecium EFM.14 (ATCC 6569); assay type: cell-based
How it was run: as §1

[5] = tested on: Staphylococcus aureus SAU.42 (ATCC 29213); assay type: cell-based
How it was run: as §1

[6] = tested on: Enterococcus faecium EFM.384, Daptomycin resistant mutant (14-A); assay type: cell-based; conditions: MHBc with 50 mg/L calcium, 18-20 hours at 37° C.
How it was run: as §1

[7] = tested on: Staphylococcus aureus SAU.278, Daptomycin resistant mutant (D10); assay type: cell-based; conditions: MHBc with 50 mg/L calcium, 18-20 hours at 37° C.
How it was run: as §1

[8] = tested on: Enterococcus faecalis EFS.312, Daptomycin resistant mutant (EFA); assay type: cell-based; conditions: MHBc with 50 mg/L calcium, 18-20 hours at 37° C.
How it was run: as §1

[9] = MHBc with 50 mg/L calcium, 18-20 hours at 37° C.

Row | Structure (SMILES) | C. diff MIC90 [1] | Sa399 MIC ([2]; ATCC 43300) | Efs201 MIC ([3]; ATCC 49452) | Efm14 MIC ([4]; ATCC 6569) | Sa42 MIC ([5]; ATCC 29213) | Efm384 MIC [6] | Sa278 MIC [7] | Efs312 MIC [8] | Sa399 MIC [2, 9] | Efs201 MIC [3, 9] | Efm14 MIC [4, 9] | Sa42 MIC [5, 9]
1 | C[C@H](CC(=O)O)[C@@H]1NC(=O)[C@@H](CO)NC(=O)CNC(=O)[C@H](CC(=O)O)NC(=O)[C@@H](C)NC(=O)[C@H](CC(=O)O)NC(=O)[C@H](CCCN)NC(=O)CNC(=O)[C@@H](NC(=O)[C@H](CC(=O)O)NC(=O)[C@@H](CC(N)=O)NC(=O)[C@H](Cc2c[nH]c3ccccc23)NC(=O)CCCCCCC2CCCCC2)[C@@H](C)OC(=O)[C@H](CC(=O)c2ccccc2N)NC1=O [Compound 25] | 1 µg/mL | 0.5 µg/mL | 0.5 µg/mL | 1 µg/mL | 0.5 µg/mL | 8 µg/mL | 1 µg/mL | 16 µg/mL |  |  |  | 
2 | C[C@H](CC(=O)O)[C@@H]1NC(=O)[C@@H](CO)NC(=O)CNC(=O)[C@H](CC(=O)O)NC(=O)[C@@H](C)NC(=O)[C@H](CC(=O)O)NC(=O)[C@H](CCCN)NC(=O)CNC(=O)[C@@H](NC(=O)[C@H](CC(=O)O)NC(=O)[C@@H](CC(N)=O)NC(=O)[C@H](Cc2c[nH]c3ccccc23)NC(=O)CCCCCC2CCCCC2)[C@@H](C)OC(=O)[C@H](CC(=O)c2ccccc2N)NC1=O [Compound 26] | 2 µg/mL | 0.5 µg/mL | 1 µg/mL | 2 µg/mL | 1 µg/mL | 16 µg/mL | 2 µg/mL | >32 µg/mL |  |  |  | 
3 | CCc1ccc(CCC(=O)N[C@@H](Cc2c[nH]c3ccccc23)C(=O)N[C@H](CC(N)=O)C(=O)N[C@@H](CC(=O)O)C(=O)N[C@@H]2C(=O)NCC(=O)N[C@@H](CCCN)C(=O)N[C@@H](CC(=O)O)C(=O)N[C@H](C)C(=O)N[C@@H](CC(=O)O)C(=O)NCC(=O)N[C@H](CO)C(=O)N[C@@H]([C@H](C)CC(=O)O)C(=O)N[C@@H](CC(=O)c3ccccc3N)C(=O)O[C@@H]2C)cc1 [Compound 29] | 16 µg/mL | 8 µg/mL | >32 µg/mL | >32 µg/mL | 8 µg/mL | >32 µg/mL | >32 µg/mL | >32 µg/mL |  |  |  | 
4 | CCCCCCOc1ccc(C(=O)N[C@@H](Cc2c[nH]c3ccccc23)C(=O)N[C@H](CC(N)=O)C(=O)N[C@@H](CC(=O)O)C(=O)N[C@@H]2C(=O)NCC(=O)N[C@@H](CCCN)C(=O)N[C@@H](CC(=O)O)C(=O)N[C@H](C)C(=O)N[C@@H](CC(=O)O)C(=O)NCC(=O)N[C@H](CO)C(=O)N[C@@H]([C@H](C)CC(=O)O)C(=O)N[C@@H](CC(=O)c3ccccc3N)C(=O)O[C@@H]2C)cc1 [Compound 35] | 2 µg/mL |  |  |  |  | 32 µg/mL | 4.00 µg/mL | >32 µg/mL | 0.5 µg/mL | 1.0 µg/mL | 2 µg/mL | 0.5 µg/mL
5 | CCCCCCCCOc1ccc(C(=O)N[C@@H](Cc2c[nH]c3ccccc23)C(=O)N[C@H](CC(N)=O)C(=O)N[C@@H](CC(=O)O)C(=O)N[C@@H]2C(=O)NCC(=O)N[C@@H](CCCN)C(=O)N[C@@H](CC(=O)O)C(=O)N[C@H](C)C(=O)N[C@@H](CC(=O)O)C(=O)NCC(=O)N[C@H](CO)C(=O)N[C@@H]([C@H](C)CC(=O)O)C(=O)N[C@@H](CC(=O)c3ccccc3N)C(=O)O[C@@H]2C)cc1 [Compound 36] | 0.5 µg/mL |  |  |  |  | 4 µg/mL | 1.00 µg/mL | 4 µg/mL | 0.25 µg/mL | 0.5 µg/mL | 0.5 µg/mL | 0.25 µg/mL
6 | CCCCCCCCCCCCOc1ccc(C(=O)N[C@@H](Cc2c[nH]c3ccccc23)C(=O)N[C@H](CC(N)=O)C(=O)N[C@@H](CC(=O)O)C(=O)N[C@@H]2C(=O)NCC(=O)N[C@@H](CCCN)C(=O)N[C@@H](CC(=O)O)C(=O)N[C@H](C)C(=O)N[C@@H](CC(=O)O)C(=O)NCC(=O)N[C@H](CO)C(=O)N[C@@H]([C@H](C)CC(=O)O)C(=O)N[C@@H](CC(=O)c3ccccc3N)C(=O)O[C@@H]2C)cc1 [Compound 39] | 16 µg/mL |  |  |  |  | 2 µg/mL | 2.00 µg/mL | 2 µg/mL | 0.500 µg/mL | 0.5 µg/mL | 2.0 µg/mL | 1.00 µg/mL
7 | CCCCCCCCCCCCCCCOc1ccc(C(=O)N[C@@H](Cc2c[nH]c3ccccc23)C(=O)N[C@H](CC(N)=O)C(=O)N[C@@H](CC(=O)O)C(=O)N[C@@H]2C(=O)NCC(=O)N[C@@H](CCCN)C(=O)N[C@@H](CC(=O)O)C(=O)N[C@H](C)C(=O)N[C@@H](CC(=O)O)C(=O)NCC(=O)N[C@H](CO)C(=O)N[C@@H]([C@H](C)CC(=O)O)C(=O)N[C@@H](CC(=O)c3ccccc3N)C(=O)O[C@@H]2C)cc1 [Compound 40] | 32 µg/mL |  |  |  |  | 32 µg/mL | 16.00 µg/mL | 8 µg/mL | 4.000 µg/mL | 4.0 µg/mL | 32.0 µg/mL | 4.00 µg/mL
